Measurements as given in the supplement of paper PMC12076712.

Experiments:
Test in all cases: pIC50, kinobeads binding competition
Settings in all cases: cell material: Jurkat lysate
UniProt Q15208 = molecular target: UniProt Q15208
UniProt O75716 = molecular target: UniProt O75716
ABL2 = ABL2 (UniProt P42684)
CIT = CIT (UniProt O14578)
TGFBR1 = molecular target: T1, TGFBR1 (UniProt P36897)
T1 sequence (whole entry): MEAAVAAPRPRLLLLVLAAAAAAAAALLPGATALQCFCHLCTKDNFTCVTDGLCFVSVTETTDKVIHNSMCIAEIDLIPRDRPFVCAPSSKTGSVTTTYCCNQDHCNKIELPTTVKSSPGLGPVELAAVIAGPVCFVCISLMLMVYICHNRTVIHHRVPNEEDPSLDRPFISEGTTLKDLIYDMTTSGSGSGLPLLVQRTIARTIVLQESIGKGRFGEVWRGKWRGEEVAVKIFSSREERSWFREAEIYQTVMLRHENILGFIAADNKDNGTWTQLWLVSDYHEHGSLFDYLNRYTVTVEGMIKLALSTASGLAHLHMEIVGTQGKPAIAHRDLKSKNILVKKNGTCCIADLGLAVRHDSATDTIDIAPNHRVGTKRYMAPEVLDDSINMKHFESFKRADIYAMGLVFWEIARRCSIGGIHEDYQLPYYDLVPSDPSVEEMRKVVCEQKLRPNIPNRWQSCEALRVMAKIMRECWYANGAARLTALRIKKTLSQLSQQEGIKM

UHMK1 = molecular target: T2, UHMK1 (UniProt Q8TAS1)
T2 sequence (whole entry): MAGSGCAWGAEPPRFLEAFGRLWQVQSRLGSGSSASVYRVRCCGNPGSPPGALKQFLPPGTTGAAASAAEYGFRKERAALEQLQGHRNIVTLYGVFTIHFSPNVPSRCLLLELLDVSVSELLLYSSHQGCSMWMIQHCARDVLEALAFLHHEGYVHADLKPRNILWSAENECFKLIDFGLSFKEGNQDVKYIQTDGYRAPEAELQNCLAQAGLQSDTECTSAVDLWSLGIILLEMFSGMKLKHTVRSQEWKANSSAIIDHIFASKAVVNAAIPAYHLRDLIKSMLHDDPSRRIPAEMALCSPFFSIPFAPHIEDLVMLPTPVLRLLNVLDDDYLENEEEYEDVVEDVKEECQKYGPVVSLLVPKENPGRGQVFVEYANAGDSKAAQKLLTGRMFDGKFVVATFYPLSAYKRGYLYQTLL

UniProt P46734 = molecular target: T3, UniProt P46734
T3 sequence (whole entry): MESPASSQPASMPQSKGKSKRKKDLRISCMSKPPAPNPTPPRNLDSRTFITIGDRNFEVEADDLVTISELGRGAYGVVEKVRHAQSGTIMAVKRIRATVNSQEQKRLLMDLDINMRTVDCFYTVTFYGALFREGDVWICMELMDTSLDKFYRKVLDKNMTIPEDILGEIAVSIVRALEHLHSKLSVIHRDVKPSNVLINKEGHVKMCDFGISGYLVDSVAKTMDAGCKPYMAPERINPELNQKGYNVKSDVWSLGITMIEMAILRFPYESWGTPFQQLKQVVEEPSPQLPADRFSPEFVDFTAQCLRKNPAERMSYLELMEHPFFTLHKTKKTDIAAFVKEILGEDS

UniProt Q13163 = molecular target: T4, UniProt Q13163
T4 sequence (whole entry): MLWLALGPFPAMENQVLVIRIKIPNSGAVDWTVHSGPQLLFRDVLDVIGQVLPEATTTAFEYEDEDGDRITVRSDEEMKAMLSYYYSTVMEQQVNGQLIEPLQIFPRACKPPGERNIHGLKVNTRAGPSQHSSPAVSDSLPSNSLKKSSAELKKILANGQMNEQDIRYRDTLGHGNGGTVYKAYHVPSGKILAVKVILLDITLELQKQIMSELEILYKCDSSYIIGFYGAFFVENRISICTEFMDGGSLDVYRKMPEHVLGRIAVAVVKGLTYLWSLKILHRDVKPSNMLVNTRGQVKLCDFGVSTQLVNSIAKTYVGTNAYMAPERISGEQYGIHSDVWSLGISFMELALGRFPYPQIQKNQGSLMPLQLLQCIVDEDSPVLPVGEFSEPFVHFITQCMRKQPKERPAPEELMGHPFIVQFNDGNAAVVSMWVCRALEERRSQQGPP

DDR1 = DDR1 (UniProt Q08345)
PAK1 = PAK1 (UniProt Q13153)
STK33 = STK33 (UniProt Q9BYT3)
UniProt P28482 = molecular target: UniProt P28482
UniProt Q8NI60 = molecular target: UniProt Q8NI60
UniProt Q9NYL2 = molecular target: UniProt Q9NYL2
UniProt Q9UEE5 = molecular target: T5, UniProt Q9UEE5
T5 sequence (whole entry): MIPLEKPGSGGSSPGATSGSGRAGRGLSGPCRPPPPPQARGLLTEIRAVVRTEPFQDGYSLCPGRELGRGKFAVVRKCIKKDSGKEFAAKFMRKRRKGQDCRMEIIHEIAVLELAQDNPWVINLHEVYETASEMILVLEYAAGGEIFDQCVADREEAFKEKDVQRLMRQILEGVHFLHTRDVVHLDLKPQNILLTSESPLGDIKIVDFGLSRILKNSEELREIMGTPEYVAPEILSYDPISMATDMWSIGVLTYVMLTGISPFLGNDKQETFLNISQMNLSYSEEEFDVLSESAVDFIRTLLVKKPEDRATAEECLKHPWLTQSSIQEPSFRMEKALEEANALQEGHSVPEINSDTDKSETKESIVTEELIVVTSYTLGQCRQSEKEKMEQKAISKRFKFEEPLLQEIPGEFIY

Measured: pIC50

Chain of UniProt Q9NYL2 (Q9NYL2 whole entry, looked up): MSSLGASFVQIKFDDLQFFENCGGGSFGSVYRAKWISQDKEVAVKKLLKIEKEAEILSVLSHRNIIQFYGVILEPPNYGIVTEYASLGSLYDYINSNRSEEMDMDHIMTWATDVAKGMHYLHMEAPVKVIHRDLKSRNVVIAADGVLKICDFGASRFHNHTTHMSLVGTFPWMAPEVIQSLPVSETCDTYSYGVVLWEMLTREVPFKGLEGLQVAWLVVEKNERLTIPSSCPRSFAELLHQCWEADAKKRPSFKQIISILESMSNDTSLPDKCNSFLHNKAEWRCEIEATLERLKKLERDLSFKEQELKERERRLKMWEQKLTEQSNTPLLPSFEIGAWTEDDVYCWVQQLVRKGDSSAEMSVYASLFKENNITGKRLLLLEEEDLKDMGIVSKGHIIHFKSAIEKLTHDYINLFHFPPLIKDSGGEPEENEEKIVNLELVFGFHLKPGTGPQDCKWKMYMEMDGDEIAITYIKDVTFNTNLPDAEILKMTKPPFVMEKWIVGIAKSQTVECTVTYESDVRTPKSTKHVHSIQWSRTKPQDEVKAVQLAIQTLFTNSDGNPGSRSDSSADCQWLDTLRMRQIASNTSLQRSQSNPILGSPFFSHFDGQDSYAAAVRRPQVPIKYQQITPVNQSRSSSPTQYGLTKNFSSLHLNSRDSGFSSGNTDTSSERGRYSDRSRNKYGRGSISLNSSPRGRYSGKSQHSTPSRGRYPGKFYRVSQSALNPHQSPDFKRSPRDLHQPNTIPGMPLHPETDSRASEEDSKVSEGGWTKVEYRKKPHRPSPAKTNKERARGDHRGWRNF
Chain of ABL2 (P42684 whole entry): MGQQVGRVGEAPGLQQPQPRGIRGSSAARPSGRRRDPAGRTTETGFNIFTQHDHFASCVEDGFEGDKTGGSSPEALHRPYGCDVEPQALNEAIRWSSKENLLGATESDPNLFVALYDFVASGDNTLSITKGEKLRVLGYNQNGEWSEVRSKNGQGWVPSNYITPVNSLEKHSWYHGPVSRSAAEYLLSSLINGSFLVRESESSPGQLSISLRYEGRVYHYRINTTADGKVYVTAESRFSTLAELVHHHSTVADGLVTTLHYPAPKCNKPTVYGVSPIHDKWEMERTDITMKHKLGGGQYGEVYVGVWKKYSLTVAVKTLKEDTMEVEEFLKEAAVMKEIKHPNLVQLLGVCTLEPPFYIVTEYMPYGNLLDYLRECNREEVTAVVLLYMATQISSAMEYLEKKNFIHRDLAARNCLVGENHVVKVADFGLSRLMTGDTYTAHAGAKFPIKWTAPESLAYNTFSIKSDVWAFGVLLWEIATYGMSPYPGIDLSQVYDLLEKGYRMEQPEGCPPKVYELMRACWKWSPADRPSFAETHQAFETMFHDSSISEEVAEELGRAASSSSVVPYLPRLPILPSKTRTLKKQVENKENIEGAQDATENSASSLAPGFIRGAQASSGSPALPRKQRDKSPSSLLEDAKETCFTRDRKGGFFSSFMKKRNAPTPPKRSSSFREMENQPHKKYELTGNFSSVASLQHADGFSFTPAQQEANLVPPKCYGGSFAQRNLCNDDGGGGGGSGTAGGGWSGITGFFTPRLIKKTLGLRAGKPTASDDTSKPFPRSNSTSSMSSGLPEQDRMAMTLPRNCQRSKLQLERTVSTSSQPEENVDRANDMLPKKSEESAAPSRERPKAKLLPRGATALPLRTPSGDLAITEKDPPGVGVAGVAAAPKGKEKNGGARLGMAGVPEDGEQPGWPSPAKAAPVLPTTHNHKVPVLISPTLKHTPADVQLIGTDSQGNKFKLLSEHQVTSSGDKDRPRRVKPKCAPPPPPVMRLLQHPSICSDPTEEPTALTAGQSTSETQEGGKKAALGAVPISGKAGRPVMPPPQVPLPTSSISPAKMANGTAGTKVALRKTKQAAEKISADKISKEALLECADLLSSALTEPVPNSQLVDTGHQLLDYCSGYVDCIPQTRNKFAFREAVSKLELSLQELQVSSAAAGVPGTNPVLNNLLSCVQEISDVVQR
Chain of CIT (O14578 whole entry): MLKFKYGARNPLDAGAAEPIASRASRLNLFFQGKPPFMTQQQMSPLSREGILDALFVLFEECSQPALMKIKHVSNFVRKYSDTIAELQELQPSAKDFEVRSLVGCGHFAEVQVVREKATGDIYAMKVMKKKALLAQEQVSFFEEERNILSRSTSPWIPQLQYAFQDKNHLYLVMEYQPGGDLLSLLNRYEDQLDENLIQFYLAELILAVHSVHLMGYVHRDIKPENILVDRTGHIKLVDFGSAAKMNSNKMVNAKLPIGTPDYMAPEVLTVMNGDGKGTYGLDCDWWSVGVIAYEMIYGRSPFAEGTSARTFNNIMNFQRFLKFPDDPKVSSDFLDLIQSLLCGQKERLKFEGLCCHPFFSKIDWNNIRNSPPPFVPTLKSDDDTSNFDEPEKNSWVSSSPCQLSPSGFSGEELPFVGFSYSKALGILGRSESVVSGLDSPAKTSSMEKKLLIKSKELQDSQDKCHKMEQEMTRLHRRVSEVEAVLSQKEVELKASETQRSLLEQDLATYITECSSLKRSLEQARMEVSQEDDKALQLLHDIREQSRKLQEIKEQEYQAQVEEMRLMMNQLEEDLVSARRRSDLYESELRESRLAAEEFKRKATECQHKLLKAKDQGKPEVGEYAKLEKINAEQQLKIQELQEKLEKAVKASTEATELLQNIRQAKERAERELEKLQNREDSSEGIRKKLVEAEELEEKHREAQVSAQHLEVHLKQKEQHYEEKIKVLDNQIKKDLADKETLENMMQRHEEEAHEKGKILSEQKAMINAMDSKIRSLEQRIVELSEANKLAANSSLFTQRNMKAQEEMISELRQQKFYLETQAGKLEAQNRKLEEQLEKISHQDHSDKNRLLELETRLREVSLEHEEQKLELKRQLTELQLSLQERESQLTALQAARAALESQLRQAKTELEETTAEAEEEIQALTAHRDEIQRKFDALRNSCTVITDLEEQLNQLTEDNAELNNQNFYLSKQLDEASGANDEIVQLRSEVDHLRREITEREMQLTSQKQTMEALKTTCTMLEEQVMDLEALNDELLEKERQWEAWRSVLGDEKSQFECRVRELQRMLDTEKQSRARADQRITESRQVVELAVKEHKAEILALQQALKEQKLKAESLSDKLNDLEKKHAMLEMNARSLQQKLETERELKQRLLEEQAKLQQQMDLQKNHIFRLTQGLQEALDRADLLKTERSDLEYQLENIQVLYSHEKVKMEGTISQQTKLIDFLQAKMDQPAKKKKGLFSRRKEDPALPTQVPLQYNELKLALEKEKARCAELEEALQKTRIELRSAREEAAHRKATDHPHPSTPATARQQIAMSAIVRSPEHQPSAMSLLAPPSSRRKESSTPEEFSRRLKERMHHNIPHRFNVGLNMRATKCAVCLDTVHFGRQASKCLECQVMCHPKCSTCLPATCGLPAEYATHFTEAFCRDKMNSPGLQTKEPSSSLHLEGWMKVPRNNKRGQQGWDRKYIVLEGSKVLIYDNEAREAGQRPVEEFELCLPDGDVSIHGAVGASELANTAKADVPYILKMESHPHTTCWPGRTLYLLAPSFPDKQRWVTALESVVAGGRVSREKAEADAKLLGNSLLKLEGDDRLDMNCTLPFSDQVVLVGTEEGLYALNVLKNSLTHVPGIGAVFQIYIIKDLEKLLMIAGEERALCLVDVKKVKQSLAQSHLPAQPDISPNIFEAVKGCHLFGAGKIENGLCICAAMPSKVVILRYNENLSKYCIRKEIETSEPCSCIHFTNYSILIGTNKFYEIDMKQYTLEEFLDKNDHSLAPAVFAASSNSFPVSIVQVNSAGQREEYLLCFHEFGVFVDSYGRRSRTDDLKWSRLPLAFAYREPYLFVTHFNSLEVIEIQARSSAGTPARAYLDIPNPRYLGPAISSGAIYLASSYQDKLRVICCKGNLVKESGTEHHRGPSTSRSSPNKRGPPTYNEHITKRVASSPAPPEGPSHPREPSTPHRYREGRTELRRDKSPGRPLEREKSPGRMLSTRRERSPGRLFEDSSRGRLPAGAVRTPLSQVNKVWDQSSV
Chain of UniProt Q15208 (Q15208 whole entry, looked up): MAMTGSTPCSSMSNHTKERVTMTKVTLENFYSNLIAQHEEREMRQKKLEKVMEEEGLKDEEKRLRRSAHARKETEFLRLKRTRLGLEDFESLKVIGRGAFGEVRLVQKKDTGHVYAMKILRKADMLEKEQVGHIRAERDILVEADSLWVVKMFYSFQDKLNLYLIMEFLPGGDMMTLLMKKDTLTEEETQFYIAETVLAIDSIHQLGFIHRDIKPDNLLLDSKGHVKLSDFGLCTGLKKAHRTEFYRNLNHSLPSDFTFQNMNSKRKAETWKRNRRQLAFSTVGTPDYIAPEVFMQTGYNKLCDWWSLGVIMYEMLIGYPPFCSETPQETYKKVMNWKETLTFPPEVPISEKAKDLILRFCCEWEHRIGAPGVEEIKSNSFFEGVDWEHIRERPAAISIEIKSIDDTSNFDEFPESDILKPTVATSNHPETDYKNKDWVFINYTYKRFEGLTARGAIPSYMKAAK
Chain of UniProt O75716 (O75716 whole entry): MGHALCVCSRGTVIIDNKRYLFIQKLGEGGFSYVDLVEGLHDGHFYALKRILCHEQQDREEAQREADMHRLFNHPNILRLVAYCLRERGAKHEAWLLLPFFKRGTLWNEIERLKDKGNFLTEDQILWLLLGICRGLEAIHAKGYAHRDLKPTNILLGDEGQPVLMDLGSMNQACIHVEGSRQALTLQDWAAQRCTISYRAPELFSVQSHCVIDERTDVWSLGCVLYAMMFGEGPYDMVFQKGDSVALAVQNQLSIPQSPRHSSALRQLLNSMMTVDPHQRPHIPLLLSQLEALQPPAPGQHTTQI

CCc1cnn2c(NCc3ccc[n+]([O-])c3)cc(N3CCCC[C@H]3CCO)nc12 [dinaciclib]
< 4.52: all assays above
